The text below walks through data of ChEMBL document CHEMBL1152706, “Stieglitz rearrangement of N,N-dichloro-beta,beta-disubstituted taurines under mild aqueous conditions” (Bioorg Med Chem Lett, 2009).

In general, half-life refers to how long it takes for the measured level to halve.

Holding throughout (format): physicochemical
Holding throughout (settings): buffer

Data set [1] is described as follows: Chemical stability assessed as half life at pH 7 at 40 degC.
The nature of data set [2]: Chemical stability assessed as half life at pH 4 at 40 degC.
Data set [3] is described as follows: Chemical stability assessed as half life at pH 4 at 25 degC.

Regarding `O=S(=O)([O-])CCCCCN(Cl)Cl.[Na+]`, the half-life in data set [1] is 24 h; in data set [2], 120 h.

With `CC(C)(CS(=O)(=O)[O-])N(Cl)Cl.[Na+]`, the t1/2 in data set [2] is recorded as > 2 yr.

Consider `O=S(=O)([O-])CCCCN(Cl)Cl.[Na+]`, for which the half-life in data set [3] is 6 h.

`CCC(CC)(CS(=O)(=O)[O-])N(Cl)Cl.[Na+]`: the half-life in data set [1] is 12 h; in data set [2], 24 h.

In the case of `CCCC(CCC)(CS(=O)(=O)[O-])N(Cl)Cl.[Na+]`, the figures for the half-life in data set [1] and in data set [2] were 48 h and 12 h, respectively.

Take `CC(C)C(CS(=O)(=O)[O-])(C(C)C)N(Cl)Cl.[Na+]`: in data set [3], the half-life was < 0.167 h.

`O=S(=O)([O-])CCCCCCN(Cl)Cl.[Na+]`: the half-life in data set [2] was 168 h.

`O=S(=O)([O-])CCCCCCCN(Cl)Cl.[Na+]`: in data set [2], the half-life was 48 h.

Take `COCC(C)(CS(=O)(=O)[O-])N(Cl)Cl.[Na+]` (centres undefined): the half-life in data set [3] is 36 h.

On to `CC1(C)CC(C)(C)CC(CS(=O)(=O)[O-])(N(Cl)Cl)C1.[Na+]`, for which the half-life in data set [2] was 24 h.

Take `O=S(=O)([O-])CCOCCN(Cl)Cl.[Na+]`: in data set [3], the half-life is < 24 h.
